One may read the MIC as the lowest concentration that inhibits growth of the organism.

37 compounds from ChEMBL document CHEMBL5346863, “Discovery of substituted benzyloxy-benzylamine inhibitors of acetyltransferase Eis and their anti-mycobacterial activity” (Eur J Med Chem, 2022) can be followed below.

Converted amounts (≈) assume the structure as drawn.

The assay concerns Mycobacterium tuberculosis variant bovis. Put plainly: Antibacterial activity against Mycobacterium bovis BCG ATCC 35734 assessed as bacterial growth inhibition incubated for 2 to 3 weeks by resazurin dye based assay. Type of assay: functional. To be noted: time 2-3 weeks. In general terms: Alamar Blue is a resazurin reagent that responds to reducing activity.
As for `Fc1ccc(COc2ccc(CNCc3cccnc3)cc2)cc1`, the minimum inhibitory concentration (MIC) came out at 62.5 µM (≈ 20.1 µg/mL).

Consider `c1ccc(COc2ccc(CNCc3ccncc3)cc2)cc1`, for which the MIC was over 62.5 µM.

For `Clc1ccc(COc2ccc(CNCc3ccccc3)cc2)cc1`, the MIC came to 7.8 µM (≈ 2.64 µg/mL).

With `Clc1cccc(COc2ccccc2CNCc2cccnc2)c1`, the MIC was 62.5 µM (≈ 21.2 µg/mL).

For `c1ccc(CNCc2ccc(OCc3ccccc3)cc2)cc1`, the minimum inhibitory concentration (MIC) amounted to 31.3 µM (≈ 9.5 µg/mL).

For `Fc1ccc(COc2cccc(CNCc3ccccc3)c2)cc1`, the minimal inhibitory concentration (MIC) is 7.8 µM (≈ 2.51 µg/mL).

As to `Clc1ccc(COc2ccccc2CNCc2ccncc2)cc1`, the MIC was determined as 62.5 µM (≈ 21.2 µg/mL).

Regarding `COc1ccc(COc2ccc(CNCc3ccccc3)cc2)cc1`, the MIC stood at 7.8 µM (≈ 2.6 µg/mL).

As for `Fc1ccc(COc2ccc(CNCc3ccccc3)cc2)cc1`, the minimum inhibitory concentration (MIC) is over 62.5 µM.

In the case of `Clc1cccc(COc2ccccc2CNCc2ccccc2)c1`, the MIC is 15.6 µM (≈ 5.27 µg/mL).

As to `c1ccc(CNCc2ccc(OCc3ccc(-c4ccccc4)cc3)cc2)cc1`, the MIC was 3.9 µM (≈ 1.48 µg/mL).

Consider `Clc1ccc(COc2ccccc2CNCc2ccccc2)cc1`, for which the minimal inhibitory concentration (MIC) came out at 62.5 µM (≈ 21.1 µg/mL).

`Brc1ccc(COc2ccccc2CNCc2ccncc2)cc1`: the MIC came to 62.5 µM (≈ 24 µg/mL).

For the compound `Brc1ccc(COc2ccccc2CNCc2cccnc2)cc1`, the MIC turned out to be 62.5 µM (≈ 24 µg/mL).

Consider `Fc1ccc(COc2ccc(CNCc3ccncc3)cc2)cc1`, for which the minimum inhibitory concentration (MIC) was found to be 62.5 µM (≈ 20.1 µg/mL).

As to `Fc1ccc(COc2cccc(CNCc3ccncc3)c2)cc1`, the minimal inhibitory concentration (MIC) was over 62.5 µM.

`Clc1ccc(COc2cccc(CNCc3cccnc3)c2)cc1`: the minimal inhibitory concentration (MIC) came out at 62.5 µM (≈ 21.2 µg/mL).

Consider `Clc1cccc(COc2ccccc2CNCc2ccncc2)c1`, for which the MIC is over 62.5 µM.

Consider `c1ccc(COc2ccc(CNCc3cccnc3)cc2)cc1`, for which the MIC is over 62.5 µM.

For `c1ccc(CNCc2ccccc2OCc2ccccc2)cc1`, the minimal inhibitory concentration (MIC) was determined as 62.5 µM (≈ 19 µg/mL).

Regarding `Brc1cccc(COc2ccc(CNCc3ccccc3)cc2)c1`, the MIC turned out to be 7.8 µM (≈ 2.98 µg/mL).

Consider `Fc1ccc(COc2ccccc2CNCc2cccnc2)cc1`, for which the minimum inhibitory concentration (MIC) is over 62.5 µM.

For `NNC(=O)c1ccncc1` [ISONIAZID], the minimal inhibitory concentration (MIC) is at most 0.25 µM.

On to `c1ccc(COc2ccccc2CNCc2ccncc2)cc1`, for which the minimal inhibitory concentration (MIC) is over 62.5 µM.

Consider `Fc1ccc(COc2ccccc2CNCc2ccccc2)cc1`, for which the MIC was over 62.5 µM.

In the case of `Brc1ccc(COc2ccccc2CNCc2ccccc2)cc1`, the MIC was 62.5 µM (≈ 23.9 µg/mL).

`Clc1ccc(COc2cccc(CNCc3ccccc3)c2)cc1`: the MIC came to 7.8 µM (≈ 2.64 µg/mL).

As to `Cc1ccc(COc2ccc(CNCc3ccccc3)cc2)cc1`, the minimum inhibitory concentration (MIC) came to 3.9 µM (≈ 1.24 µg/mL).

For the compound `c1ccc(COc2ccccc2CNCc2cccnc2)cc1`, the MIC is over 62.5 µM.

Take `Clc1ccc(COc2cccc(CNCc3ccncc3)c2)cc1`: the MIC came to 62.5 µM (≈ 21.2 µg/mL).

In the case of `Clc1ccc(COc2ccc(CNCc3ccncc3)cc2)cc1`, the MIC was 31.3 µM (≈ 10.6 µg/mL).

Take `Brc1ccc(COc2ccc(CNCc3ccccc3)cc2)cc1`: the minimum inhibitory concentration (MIC) was determined as 3.9 µM (≈ 1.49 µg/mL).

Turning to `Brc1ccccc1COc1ccc(CNCc2ccccc2)cc1`, the minimal inhibitory concentration (MIC) was 7.8 µM (≈ 2.98 µg/mL).

For the compound `CC(C)(C)c1ccc(COc2ccc(CNCc3ccccc3)cc2)cc1`, the minimum inhibitory concentration (MIC) is 2 µM (≈ 0.719 µg/mL).

`CC(C)c1ccc(COc2ccc(CNCc3ccccc3)cc2)cc1`: the MIC came to 1 µM (≈ 0.345 µg/mL).

As for `Clc1ccc(COc2ccc(CNCc3cccnc3)cc2)cc1`, the MIC is 62.5 µM (≈ 21.2 µg/mL).

Consider `Fc1ccc(COc2cccc(CNCc3cccnc3)c2)cc1`, for which the MIC is over 62.5 µM.
